Laboratory results published in patent US8802597B2, “Herbicidal pyrimidines” (E I du Pont de Nemours and Company, priority 2003, dated 2014).
Read-outs that look alike come from different tables or passages of the source.

What was measured:
Type in all cases: in vivo
[1] = system: chickweed (Stellaria media); assay: Test C postemergence; conditions: Stellaria media, post-emergence
In short: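 Greenhouse herbicide screen, visual readout. Compound in solvent/surfactant applied preemergence at planting or postemergence to 1- to 4-leaf plants; assessed at 12–14 days on a 0–100 control scale.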

[2] = system: morningglory (Ipomoea coccinea); assay: Test C pre/postemergence; conditions: Ipomoea; for pest or weed control at 31 g/ha: 31 g ai/ha; for pest or weed control at 62 g/ha: 62 g ai/ha; for pest or weed control at 125 g/ha: 125 g ai/ha; for pest or weed control at 250 g/ha: 250 g ai/ha
From the text: (§1) Seeds or nutlets of plant species selected from bermudagrass (Cynodon dactylon), Surinam grass (Brachiaria decumbens), cocklebur (Xanthium strumarium), corn (Zea mays), crabgrass (Digitaria sanguinalis), woolly cupgrass (Eriochloa villosa), giant foxtail (Setaria faberii), goosegrass (Eleusine indica), johnsongrass (Sorghum halepense), kochia (Kochia scoparia), lambsquarters (Chenopodium album), morningglory (Ipomoea coccinea), eastern black nightshade (Solanum ptycanthum), yellow nutsedge (Cyperus esculentus), pigweed (Amaranthus retroflexus), common ragweed (Ambrosia elatior), soybean (Glycine max), common (oilseed) sunflower (Helianthus annuus), and velvetleaf (Abutilon theophrasti) were planted and treated preemergence with test chemicals formulated in a non-phytotoxic solvent mixture which included a surfactant.
(§2) At the same time, plants selected from these crop and weed species and also winter barley (Hordeum vulgare), blackgrass (Alopecurus myosuroides), canarygrass (Phalaris minor), chickweed (Stellaria media), downy brome (Bromus tectorum), green foxtail (Setaria viridis), Italian ryegrass (Lolium multiflorum), wheat (Triticum aestivum), wild oat (Avena fatua) and windgrass (Apera spica-venti) were treated with postemergence applications of some of the test chemicals formulated in the same manner. Plants ranged in height from 2 to 18 cm (1- to 4-leaf stage) for postemergence treatments. Plant species in the flooded paddy test consisted of rice (Oryza sativa), umbrella sedge (Cyperus difformis), duck salad (Heteranthera limosa) and barnyardgrass (Echinochloa crus-galli) grown to the 2-leaf stage for testing. Treated plants and controls were maintained in a greenhouse for 12 to 14 days, after which time all species were compared to controls and visually evaluated. Plant response ratings, summarized in Table C, are based on a scale of 0 to 100 where 0 is no effect and 100 is complete control. A dash (-) response means no test result.

[3] = system: common ragweed (Ambrosia elatior); assay: Test C pre/postemergence; conditions: Ambrosia artemisiifolia; for pest or weed control at 31 g/ha: 31 g ai/ha; for pest or weed control at 62 g/ha: 62 g ai/ha; for pest or weed control at 125 g/ha: 125 g ai/ha; for pest or weed control at 250 g/ha: 250 g ai/ha
From the text: as §1, §2

[4] = system: giant foxtail (Setaria faberii); assay: Test C pre/postemergence; conditions: Setaria faberi; for pest or weed control at 125 g/ha: 125 g ai/ha; for pest or weed control at 31 g/ha: 31 g ai/ha; for pest or weed control at 62 g/ha: 62 g ai/ha; for pest or weed control at 250 g/ha: 250 g ai/ha
From the text: as §1, §2

[5] = system: johnsongrass (Sorghum halepense); assay: Test C pre/postemergence; conditions: Sorghum halepense; for pest or weed control at 31 g/ha: 31 g ai/ha; for pest or weed control at 62 g/ha: 62 g ai/ha; for pest or weed control at 125 g/ha: 125 g ai/ha; for pest or weed control at 250 g/ha: 250 g ai/ha
From the text: as §1, §2

[6] = system: woolly cupgrass (Eriochloa villosa); assay: Test C pre/postemergence; conditions: Eriochloa villosa; for pest or weed control at 31 g/ha: 31 g ai/ha; for pest or weed control at 62 g/ha: 62 g ai/ha; for pest or weed control at 125 g/ha: 125 g ai/ha; for pest or weed control at 250 g/ha: 250 g ai/ha
From the text: as §1, §2

[7] = post-emergence, Postemergence, scale 0 to 100 (0 no effect, 100 complete control), read-out: Morningglory plant response rating
[8] = pre-emergence, Preemergence, scale 0 to 100, 0 no effect, 100 complete control, read-out: Plant response rating, Morningglory
[9] = pre-emergence, Preemergence, scale 0 to 100, read-out: Plant response rating, Morningglory
[10] = post-emergence, Postemergence, scale 0 to 100 (0 no effect, 100 complete control), read-out: Ragweed plant response rating
[11] = pre-emergence, Preemergence, scale 0 to 100, 0 no effect, 100 complete control, read-out: Plant response rating, Ragweed
[12] = pre-emergence, Preemergence, scale 0 to 100, read-out: Plant response rating, Ragweed
[13] = post-emergence, Postemergence, scale 0 to 100 (0 no effect, 100 complete control), read-out: Foxtail, Giant plant response rating
[14] = pre-emergence, Preemergence, scale 0 to 100, 0 no effect, 100 complete control, read-out: Plant response rating, Foxtail, Giant
[15] = pre-emergence, Preemergence, scale 0 to 100, read-out: Plant response rating, Foxtail, Giant
[16] = post-emergence, Postemergence, scale 0 to 100 (0 no effect, 100 complete control), read-out: Johnsongrass plant response rating
[17] = pre-emergence, Preemergence, scale 0 to 100, 0 no effect, 100 complete control, read-out: Plant response rating, Johnsongrass
[18] = pre-emergence, Preemergence, scale 0 to 100, read-out: Plant response rating, Johnsongrass
[19] = post-emergence, Postemergence, scale 0 to 100 (0 no effect, 100 complete control), read-out: Cupgrass, Woolly plant response rating
[20] = pre-emergence, Preemergence, scale 0 to 100, 0 no effect, 100 complete control, read-out: Plant response rating, Cupgrass, Woolly
[21] = pre-emergence, Preemergence, scale 0 to 100, read-out: Plant response rating, Cupgrass, Woolly

COC(=O)c1nc(C2CC2)nc(N)c1Br [Compound 2, methyl 6-amino-5-bromo-2-cyclopropyl-4-pyrimidinecarboxylate]
pest or weed control at 31 g/ha ([1]; 31 g ai/ha, read-out: Plant response rating (scale of 0 to 100), Chickweed): 60%
pest or weed control at 62 g/ha ([1]; 62 g ai/ha, scale 0 to 100 (0 no effect, 100 complete control), read-out: Chickweed plant response rating): 65%
pest or weed control at 125 g/ha ([1]; 125 g ai/ha, scale 0 to 100, read-out: Plant response rating, Chickweed): 75%
pest or weed control at 250 g/ha ([1]; 250 g ai/ha, scale 0 to 100, read-out: Plant response rating, Chickweed): 95%
pest or weed control at 31 g/ha ([2]; post-emergence, Postemergence, read-out: Plant response rating (scale of 0 to 100), Morningglory): 70%
pest or weed control at 62 g/ha [2, 7]: 75%
pest or weed control at 125 g/ha [2, 7]: 100%
pest or weed control at 250 g/ha ([2]; post-emergence, Postemergence, scale 0 to 100, read-out: Plant response rating, Morningglory): 100%
pest or weed control at 31 g/ha [2, 8]: 100%
pest or weed control at 62 g/ha [2, 8]: 100%
pest or weed control at 125 g/ha [2, 9]: 100%
pest or weed control at 250 g/ha [2, 9]: 100%
pest or weed control at 31 g/ha ([3]; post-emergence, Postemergence, read-out: Plant response rating (scale of 0 to 100), Ragweed): 65%
pest or weed control at 62 g/ha [3, 10]: 85%
pest or weed control at 125 g/ha [3, 10]: 90%
pest or weed control at 250 g/ha ([3]; post-emergence, Postemergence, scale 0 to 100, read-out: Plant response rating, Ragweed): 95%
pest or weed control at 31 g/ha [3, 11]: 0%
pest or weed control at 62 g/ha [3, 11]: 0%
pest or weed control at 125 g/ha [3, 12]: 0%
pest or weed control at 250 g/ha [3, 12]: 0%
pest or weed control at 125 g/ha [4, 13]: 65%
pest or weed control at 31 g/ha ([4]; post-emergence, Postemergence, read-out: Plant response rating (scale of 0 to 100), Foxtail, Giant): 0%
pest or weed control at 62 g/ha [4, 13]: 35%
pest or weed control at 250 g/ha ([4]; post-emergence, Postemergence, scale 0 to 100, read-out: Plant response rating, Foxtail, Giant): 70%
pest or weed control at 31 g/ha [4, 14]: 0%
pest or weed control at 62 g/ha [4, 14]: 0%
pest or weed control at 125 g/ha [4, 15]: 0%
pest or weed control at 250 g/ha [4, 15]: 30%
pest or weed control at 31 g/ha ([5]; post-emergence, Postemergence, read-out: Plant response rating (scale of 0 to 100), Johnsongrass): 0%
pest or weed control at 62 g/ha [5, 16]: 0%
pest or weed control at 125 g/ha [5, 16]: 25%
pest or weed control at 250 g/ha ([5]; post-emergence, Postemergence, scale 0 to 100, read-out: Plant response rating, Johnsongrass): 60%
pest or weed control at 31 g/ha [5, 17]: 0%
pest or weed control at 62 g/ha [5, 17]: 0%
pest or weed control at 125 g/ha [5, 18]: 0%
pest or weed control at 250 g/ha [5, 18]: 40%
pest or weed control at 31 g/ha ([6]; post-emergence, Postemergence, read-out: Plant response rating (scale of 0 to 100), Cupgrass, Woolly): 40%
pest or weed control at 62 g/ha [6, 19]: 60%
pest or weed control at 125 g/ha [6, 19]: 70%
pest or weed control at 250 g/ha ([6]; post-emergence, Postemergence, scale 0 to 100, read-out: Plant response rating, Cupgrass, Woolly): 75%
pest or weed control at 31 g/ha [6, 20]: 0%
pest or weed control at 62 g/ha [6, 20]: 0%
pest or weed control at 125 g/ha [6, 21]: 0%
pest or weed control at 250 g/ha [6, 21]: 45%
